Measured values published in patent US20040086883A1, “Method and device for characterising and/or for detecting a bonding complex” (priority 2000, published 2004).
{Cy3} = Cy3 fluorescent dye label

B1: 5′ACTCTCTGCTGAAAGTCCCTTTGATAATCGTAACGAGGGGTTATACGCCGTAAAGCCGGAGA-Cy3 (nucleic acid)
chain: ACTCTCTGCTGAAAGTCCCTTTGATAATCGTAACGAGGGGTTATACGCCGTAAAGCCGGAGA
modifications: DNA, 3' {Cy3}, backbone not given here

How the values were obtained:
[1] = tested on: DNA-duplexes with oligo1 and oligo3; test: Differential force test comparing two DNA-duplexes (oligo2 with oligo1 versus oligo2 with oligo3); format: binding; conditions: for Q St = ΔCy3St/ΔCy5St: enrichment of Cy3-oligo2 relative to Cy5-oligo3; for Q Unt = ΔCy3Unt/ΔCy5Unt: depletion of Cy3-oligo2 relative to Cy5-oligo3
streptavidin [2] = target: T1, streptavidin (Streptomyces avidinii, UniProt P22629); test: Force test with reverse pillar pressing, biotin/streptavidin versus desthiobiotin/streptavidin; format: binding
T1 construct: purchased Molecular Probes, Eugene
T1 sequence (P22629 25-183): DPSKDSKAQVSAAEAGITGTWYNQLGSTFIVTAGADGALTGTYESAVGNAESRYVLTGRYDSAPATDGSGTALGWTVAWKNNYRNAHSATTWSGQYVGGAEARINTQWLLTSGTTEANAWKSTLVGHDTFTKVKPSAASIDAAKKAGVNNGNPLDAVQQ
Procedure: The polymerized structured and unstructured PDMS plates were cut to a size of 1 cm^2. Then the pieces were exposed to an H2O plasma in a plasma furnace at 2 mbar for 30 s. The oxidized surface was incubated with a solution of 2% aldehyde silane (4-triethoxysilylbutanal, Amchro, Hattersheim, Germany) in 10% H2O and 88% ethanol for 30 minutes. The silanised surface was washed with ethanol and very pure water and blown dry with nitrogen.
The functionalized substrates and pillars were incubated overnight in PBS (phosphate buffered saline; Sigma, St. Louis, USA) with 2% BSA (bovine serum albumin; Roth, Karlsruhe, Germany). In that case BSA binds with its amino groups to the aldehyde groups of the surface. For stabilization purposes the resulting Schiff's bases were reduced with 1% sodium borohydride for 15 minutes. […]
Depending on the respective pillar composition a fluorescence-marked streptavidin-AlexaFluor ? -647 conjugate (Molecular Probes, Eugene) was bound to the substrate or the pillar. […]
The reverse implementation permits evaluation which is independent of the coupling efficiency. […] That assumption is permissible here by virtue of the very similar properties of the binding partners BP1 and BP4 to be compared (for example size) and can also be checked by measurement of fluorescence intensity prior to the pillar pressing procedure. […]

streptavidin [3] = target: T1, streptavidin; test: Differential force test comparing biotin/streptavidin and iminobiotin/streptavidin complexes (pillar pressing); format: binding; conditions: for proportion of streptavidin transferred from the hapten on the substrate to the biotin-coated pillar: pH 10 buffer, 30 minutes contact, Alexa-Fluor-546 marked streptavidin
From the text: Biotin and iminobiotin are bound to a substrate. Fluorescence-marked streptavidin is bound to the immobilized haptens. A plunger or pillar which is coated with biotin is moved towards the substrate in such a way that the biotin which is bound to the pillar can bind the streptavidin coupled by way of the haptens to the substrate. The pillar is then removed again. To conclude, the procedure involves determining which proportion of the streptavidin was transferred from the iminobiotin of the substrate onto the biotin of the pillar and which proportion of the streptavidin was transferred from the biotin of the substrate onto the biotin of the pillar.
20 μl of a solution with 2 mg/100 μl of NHS-PEG-biotin (Shearwater, Huntsville) was incubated under a cover glass for 1 hour on a pillar with an area of 1 cm^2. It was washed with very pure water and blown dry with nitrogen.
A glass object carrier was cleaned by a 100-minute treatment with saturated KOH-ethanol solution. The cleaned surface was incubated with 3% aminosilane (3-aminopropyldimethyl-ethoxysilane; ABCR, Karlsruhe) in 10% H2O and 87% Ethanol for 30 minutes. The silanised surface was washed with very pure water and blown dry with nitrogen. […] The tBoc protective group was then split off with trifluoro-acetic acid. NHS-biotin and NHS-iminobiotin (Sigma, St. Louis) were respectively diluted starting from a 50 mM stock solution in DMSO to give a final concentration of 5 mM with PBS (phosphate buffered saline, Sigma). The attachment of biotin or iminobiotin respectively to the amino-functionalized glass substrate was effected from that solution. That was incubated for one hour in a saturated water atmosphere, washed with very pure water and blown dry with nitrogen.
For the purposes of binding the streptavidin AlexaFluor ? -546 conjugate (Molecular Probes, Eugene), a solution was produced, involving a concentration of 0.1 mg/ml in a glycine/NaOH-buffer (pH 10). The substrate was incubated for 20 minutes with the solution, then washed for 5 minutes in that buffer and blown dry with nitrogen. […]

avidin = avidin (Gallus gallus, UniProt P02701); conditions: AFM force spectrometer, Florin et al. Science 1994; cited from earlier work
Sequence of avidin (P02701 25-152, species assumed): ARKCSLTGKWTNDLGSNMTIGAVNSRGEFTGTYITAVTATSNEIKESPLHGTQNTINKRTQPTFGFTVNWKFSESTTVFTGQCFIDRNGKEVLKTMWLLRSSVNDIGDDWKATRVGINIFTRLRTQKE

Molecule	Q St = ΔCy3St/ΔCy5St ([1]; pillar)	Q Unt = ΔCy3Unt/ΔCy5Unt ([1]; substrate)	proportion of streptavidin transferred from the hapten on the substrate to the biotin-coated pillar (streptavidin [3]) [%]	unbinding force of the receptor-ligand pair (avidin) [pN]	further results
5′TTGCTCCCAGACTCTCTGCTGAAAGTCCCTTTGATAATCGTAACGAGGGGTTATACGCCGTAAAGCCCGGAGA-Cy3 [oligo2a]	1.20 ± 0.08	0.69±0.09			unbinding force of the duplex with oligo3, higher than the duplex between oligo 2b and oligo3 ([1]; from QSt and QUnt): at least 500%; QSt = QA St/QB St ([1]; pillar, Experiment 2a relative to reference experiment 2b): 1.97; QA St corr. ([1]; pillar, corrected by factor 0.82): 0.98; QUnt = QA Unt/QB Unt ([1]; substrate, Experiment 2a relative to reference experiment 2b): 1.92; QA Unt corr. ([1]; substrate, corrected by factor 1.39): 0.96
C[C@@H]1NC(=O)N[C@@H]1CCCCCC(=O)O [desthiobiotin]					quotient of the transfer to desthiobiotin and the transfer to biotin (streptavidin [2]; average of both tests): 0.18; binding force to streptavidin relative to biotin (streptavidin [2]; reverse pillar pressing): weaker
N=C1N[C@H]2[C@H](CS[C@H]2CCCCC(=O)O)N1 [iminobiotin]			30	85±15	
O=C(O)CCCC[C@@H]1SC[C@@H]2NC(=O)N[C@@H]21 [biotin]			15	160	relative strength of the streptavidin-hapten bond (streptavidin [3]; biotin versus iminobiotin, assuming identical coupling efficiency and equal density): stronger
B1	0.61 ± 0.08	0.36±0.08			
